Data reported in patent US5695970A, “Glucan lyase producing 1,5-anhydrofructose” (priority 1992, dated 1997).
Read-outs that look alike come from different tables or passages of the source.

Key:
glucose peroxidase = test: Metabolization of AF by glucose peroxidase; format: biochemical
[1] = system: hexokinase and glucose-6-phosphate dehydrogenase pathway; test: Metabolization of AF by hexokinase and glucose-6-phosphate dehydrogenase; format: biochemical
[2] = format: physicochemical; conditions: for Absorbance at 546 nm: room temperature; for Absorbance (546 nm): Table VII, 10 min after DNS reagent
Procedure: It can be seen that the reaction was completed in less than 10 minutes. […] (1990) Methods in Plant Biochemistry (Dey, P. M. and Harborne, J. B., eds.), Vol.3, pp. 103-127, Academic Press, London). |Time-course reaction of AF with DNS reagent at room |temperature. The absorbance at 546 nm as a measure of reaction |rate was recorded soon after the addition of 300 μl DNS reagent |to 300 μl sample solution containing varying amount of AF. […] The reaction of AF with 3,5-dinitrosalicylic acid reagent occurred at room temperature and was completed within 10 min (Table VI). A linear relationship exists for AF between the absorbance of 0.1-2.3 at 546 nm and AF content, ranging from 0.3-2.7 μmol or 50-440 μg i 300 μl sample (Table VII). […] This method is applicable to both the smallest substrate as maltose and the largest substrate as amylopectin. |The correlation between AF content and absorbance. |Absorbance was measured 10 min after the addition of |300 μl DNS reagent to 300 μl sample solution |containing varying amount of AF as indicated.

α-1,4-glucan lyase = test: Inhibition studies of α-1,4-glucan lyase activity; format: biochemical, Gracilariopsis lemaneiformis; conditions: products accumulating during the enzyme reaction
Procedure: The reaction mixture for the assay of α-1,4-glucan lyase was composed of 240 μl 62.5 mM Mops-NaOH containing 6 mg soluble starch (pH 6.2), the enzyme preparation and distilled water to a final volume of 300 μl. The reaction was carried out at 30° C. for 10-30 min. Liberated 1,5-anhydrofructose was determined by monitoring the absorbance at 546 nm after the addition of 3,5-dinitrosalicylic acid reagent. Soluble starch in the reaction mixture may be replaced by other substrates and the final substrate concentration may be varied as indicated in the text. The reaction time and enzyme concentration used in enzyme activity assay have been chosen to ensure the linearity of the reaction rate. One unit of α-1,4-glucan lyase activity is defined as the amount of enzyme which liberates 1μmol of 1,5-anhydrofructose min^-1 under the conditions described above.

O=C1CO[C@H](CO)[C@@H](O)[C@@H]1O [AF, 1,5-anhydrofructose]
metabolization by glucose peroxidase (glucose peroxidase): can not be metabolized | metabolization through hexokinase and glucose-6-phosphate dehydrogenase pathway [1]: can not be metabolized | reducing power (in words) ([2]; 3,5-dinitrosalicylic acid reagent at room temperature): high reducing power | Absorbance at 546 nm ([2]; AF content 0.55 μmol, reaction time 0 min): 0 | Absorbance at 546 nm ([2]; AF content 0.55 μmol, reaction time 1 min): 0.037 | Absorbance at 546 nm ([2]; AF content 0.55 μmol, reaction time 2 min): 0.180 | Absorbance at 546 nm ([2]; AF content 0.55 μmol, reaction time 3 min): 0.274 | Absorbance at 546 nm ([2]; AF content 0.55 μmol, reaction time 4 min): 0.341 | Absorbance at 546 nm ([2]; AF content 0.55 μmol, reaction time 5 min): 0.386 | Absorbance at 546 nm ([2]; AF content 0.55 μmol, reaction time 6 min): 0.414 | Absorbance at 546 nm ([2]; AF content 0.55 μmol, reaction time 7 min): 0.431 | Absorbance at 546 nm ([2]; AF content 0.55 μmol, reaction time 8 min): 0.440 | Absorbance at 546 nm ([2]; AF content 0.55 μmol, reaction time 9 min): 0.444 | Absorbance at 546 nm ([2]; AF content 0.55 μmol, reaction time 10 min): 0.446 | Absorbance at 546 nm ([2]; AF content 1.26 μmol, reaction time 0 min): 0 | Absorbance at 546 nm ([2]; AF content 1.26 μmol, reaction time 1 min): 0.218 | Absorbance at 546 nm ([2]; AF content 1.26 μmol, reaction time 2 min): 0.468 | Absorbance at 546 nm ([2]; AF content 1.26 μmol, reaction time 3 min): 0.660 | Absorbance at 546 nm ([2]; AF content 1.26 μmol, reaction time 4 min): 0.796 | Absorbance at 546 nm ([2]; AF content 1.26 μmol, reaction time 5 min): 0.888 | Absorbance at 546 nm ([2]; AF content 1.26 μmol, reaction time 6 min): 0.948 | Absorbance at 546 nm ([2]; AF content 1.26 μmol, reaction time 7 min): 0.985 | Absorbance at 546 nm ([2]; AF content 1.26 μmol, reaction time 8 min): 1.007 | Absorbance at 546 nm ([2]; AF content 1.26 μmol, reaction time 9 min): 1.024 | Absorbance at 546 nm ([2]; AF content 1.26 μmol, reaction time 10 min): 1.029 | Absorbance at 546 nm ([2]; AF content 2.36 μmol, reaction time 0 min): 0 | Absorbance at 546 nm ([2]; AF content 2.36 μmol, reaction time 1 min): 0.476 | Absorbance at 546 nm ([2]; AF content 2.36 μmol, reaction time 2 min): 0.930 | Absorbance at 546 nm ([2]; AF content 2.36 μmol, reaction time 3 min): 1.271 | Absorbance at 546 nm ([2]; AF content 2.36 μmol, reaction time 4 min): 1.510 | Absorbance at 546 nm ([2]; AF content 2.36 μmol, reaction time 5 min): 1.671 | Absorbance at 546 nm ([2]; AF content 2.36 μmol, reaction time 6 min): 1.775 | Absorbance at 546 nm ([2]; AF content 2.36 μmol, reaction time 7 min): 1.840 | Absorbance at 546 nm ([2]; AF content 2.36 μmol, reaction time 8 min): 1.880 | Absorbance at 546 nm ([2]; AF content 2.36 μmol, reaction time 9 min): 1.905 | Absorbance at 546 nm ([2]; AF content 2.36 μmol, reaction time 10 min): 1.920 | Absorbance at 546 nm ([2]; AF content 2.84 μmol, reaction time 0 min): 0 | Absorbance at 546 nm ([2]; AF content 2.84 μmol, reaction time 1 min): 0.559 | Absorbance at 546 nm ([2]; AF content 2.84 μmol, reaction time 2 min): 1.222 | Absorbance at 546 nm ([2]; AF content 2.84 μmol, reaction time 3 min): 1.628 | Absorbance at 546 nm ([2]; AF content 2.84 μmol, reaction time 4 min): 1.898 | Absorbance at 546 nm ([2]; AF content 2.84 μmol, reaction time 5 min): 2.070 | Absorbance at 546 nm ([2]; AF content 2.84 μmol, reaction time 6 min): 2.176 | Absorbance at 546 nm ([2]; AF content 2.84 μmol, reaction time 7 min): 2.239 | Absorbance at 546 nm ([2]; AF content 2.84 μmol, reaction time 8 min): 2.278 | Absorbance at 546 nm ([2]; AF content 2.84 μmol, reaction time 9 min): 2.300 | Absorbance at 546 nm ([2]; AF content 2.84 μmol, reaction time 10 min): 2.311 | Absorbance (546 nm) ([2]; AF content 0.264 μmol): 0.113 | Absorbance (546 nm) ([2]; AF content 0.340 μmol): 0.154 | Absorbance (546 nm) ([2]; AF content 0.360 μmol): 0.166 | Absorbance (546 nm) ([2]; AF content 0.526 μmol): 0.305 | Absorbance (546 nm) ([2]; AF content 0.540 μmol): 0.237 | Absorbance (546 nm) ([2]; AF content 0.636 μmol): 0.355 | Absorbance (546 nm) ([2]; AF content 0.655 μmol): 0.514 | Absorbance (546 nm) ([2]; AF content 0.702 μmol): 0.584 | Absorbance (546 nm) ([2]; AF content 0.929 μmol): 0.682 | Absorbance (546 nm) ([2]; AF content 1.089 μmol): 0.710 | Absorbance (546 nm) ([2]; AF content 1.148 μmol): 0.880 | Absorbance (546 nm) ([2]; AF content 1.181 μmol): 0.880 | Absorbance (546 nm) ([2]; AF content 1.241 μmol): 1.099 | Absorbance (546 nm) ([2]; AF content 1.514 μmol): 1.415 | Absorbance (546 nm) ([2]; AF content 1.529 μmol): 1.260 | Absorbance (546 nm) ([2]; AF content 1.588 μmol): 1.516 | Absorbance (546 nm) ([2]; AF content 1.627 μmol): 1.302 | Absorbance (546 nm) ([2]; AF content 1.712 μmol): 1.409 | Absorbance (546 nm) ([2]; AF content 2.031 μmol): 1.830 | Absorbance (546 nm) ([2]; AF content 2.052 μmol): 1.703 | Absorbance (546 nm) ([2]; AF content 2.183 μmol): 1.806 | Absorbance (546 nm) ([2]; AF content 2.241 μmol): 1.787 | Absorbance (546 nm) ([2]; AF content 2.362 μmol): 1.875 | Absorbance (546 nm) ([2]; AF content 2.683 μmol): 2.266 | Absorbance (546 nm) ([2]; AF content 3.221 μmol): 2.590 | product inhibition: effect on enzyme reaction rate (α-1,4-glucan lyase): negligible effect
